In patent EP4806891A1 (Kangbaida (Sichuan) Biotechnology Co., Ltd., priority 2023, dated 2025):

Target: T1, HEK-Blue-hTLR8 cells (Homo sapiens, UniProt Q9NR97)
T1 construct: expressed in transfected cells; host or cells: HEK-Blue-hTLR8 cells (HEK293-derived reporter line)
T1 sequence (Q9NR97 27-1041): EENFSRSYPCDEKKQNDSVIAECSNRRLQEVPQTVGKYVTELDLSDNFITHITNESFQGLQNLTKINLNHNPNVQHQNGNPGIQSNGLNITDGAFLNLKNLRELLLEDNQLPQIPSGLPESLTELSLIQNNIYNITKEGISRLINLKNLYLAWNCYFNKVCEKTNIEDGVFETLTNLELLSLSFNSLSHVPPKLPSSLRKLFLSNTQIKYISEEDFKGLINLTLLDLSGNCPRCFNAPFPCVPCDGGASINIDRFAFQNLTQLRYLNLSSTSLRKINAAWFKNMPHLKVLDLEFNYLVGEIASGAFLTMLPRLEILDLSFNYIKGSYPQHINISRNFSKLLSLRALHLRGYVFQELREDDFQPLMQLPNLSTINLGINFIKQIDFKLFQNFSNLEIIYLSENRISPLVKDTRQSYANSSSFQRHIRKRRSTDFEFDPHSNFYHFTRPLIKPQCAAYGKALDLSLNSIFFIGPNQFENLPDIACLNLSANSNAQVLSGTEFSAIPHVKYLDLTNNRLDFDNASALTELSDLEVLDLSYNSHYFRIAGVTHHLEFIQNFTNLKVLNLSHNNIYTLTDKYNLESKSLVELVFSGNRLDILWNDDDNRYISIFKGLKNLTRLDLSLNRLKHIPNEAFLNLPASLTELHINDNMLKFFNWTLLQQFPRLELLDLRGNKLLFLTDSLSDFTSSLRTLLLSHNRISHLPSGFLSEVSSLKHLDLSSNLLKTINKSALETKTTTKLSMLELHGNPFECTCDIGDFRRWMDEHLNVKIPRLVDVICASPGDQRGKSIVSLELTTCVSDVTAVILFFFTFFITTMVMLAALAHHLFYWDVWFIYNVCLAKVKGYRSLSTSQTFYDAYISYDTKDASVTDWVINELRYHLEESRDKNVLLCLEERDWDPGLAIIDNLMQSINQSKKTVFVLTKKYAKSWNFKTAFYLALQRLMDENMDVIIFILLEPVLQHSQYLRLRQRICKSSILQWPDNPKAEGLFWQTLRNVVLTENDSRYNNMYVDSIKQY
Assay: HEK-Blue-hTLR8 cell inhibition assay
Type: cell-based
Conditions: R848 3 µM, 16 h, OD 620 nm, read-out: TLR8 IC50
How it was run: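 Cells were pre-incubated 4 h, then co-treated 16 h at 37 °C with compound (10 doses, 0.5–10000 nM final) plus R848 (0.8 µM for TLR7, 3 µM for TLR8) or ODN2006 (1 µM, TLR9). Reporter OD620 gave inhibition relative to DMSO blank and agonist-only controls; IC50 came from curve fitting.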

IC50	SMILES
< 100 nM	CN1CC(Cc2nnc([C@]34CN(c5ccc(C(F)(F)F)c6ncccc56)C[C@@]3(C(F)(F)F)C4)o2)C1 [Compound 95, 2-((1-methylazetidin-3-yl)methyl)-5-((1S,5R)-5-(trifluoromethyl)-3-(8-(trifluoromethyl)quinolin-5-yl)-3-azabicyclo[3.1.0]hexan-1-yl)-1,3,4-oxadiazole]
< 100 nM	FC(F)(F)Oc1ccc(N2C[C@]3(c4nnc(C5(F)CCNCC5)o4)C[C@]3(C(F)(F)F)C2)c2cccnc12 [Compound 96, 2-(4-fluoropiperidin-4-yl)-5-((1S,5R)-3-(8-(trifluoromethoxy)quinolin-5-yl)-5-(trifluoromethyl)-3-azabicyclo[3.1.0]hexan-1-yl)-1,3,4-oxadiazole]
< 100 nM	CN1CCC(Oc2nnc([C@]34CN(c5ccc(C#N)c6ncnn56)C[C@@]3(C(F)(F)F)C4)o2)CC1 [Compound 97, 5-((1S,5R)-1-(5-((1-methylpiperidin-4-yl)oxy)-1,3,4-oxadiazol-2-yl)-5-(trifluoromethyl)-3-azabicyclo[3.1.0]hexan-3-yl)-[1,2,4]triazolo[1,5-a]pyridine-8-carbonitrile]

SMILES	IC50
CN1CCC(O)(c2nnc([C@]34CN(c5ccc(C(F)(F)F)c6ncccc56)C[C@@]3(C(F)(F)F)C4)o2)CC1 [Compound 94, 1-methyl-4-(5-((1S,5R)-5-(trifluoromethyl)-3-(8-(trifluoromethyl)quinolin-5-yl)-3-azabicyclo[3.1.0]hexan-1-yl)-1,3,4-oxadiazol-2-yl)piperidin-4-ol]	< 100 nM
